Measured values from ChEMBL document CHEMBL1201862, “PubChem BioAssay data set” (2004).
Calls of active or inactive are those of the source.

How the values were obtained:
[1] = A High Throughput Confirmatory Assay used to Identify Novel Compounds that Inhibit Mycobacterium Tuberculosis in the absence of Glycerol.; format: functional
cells [2] = experiment: cells
[3] = viability of uninfected HEp-2 cells – cell-based, HTS, cytotoxicity control for RSV inhibitor project, dose response (AID 2410); format: functional; conditions: human respiratory syncytial virus
Cytochrome P450 2D6 = Cytochrome P450 2D6 (Homo sapiens, UniProt P10635); experiment: qHTS Assay for Inhibitors and Substrates of Cytochrome P450 2D6. [Related pubchem assays: 410 ]; format: ADME; conditions: read-out: Potency
Sequence of Cytochrome P450 2D6 (P10635 whole entry): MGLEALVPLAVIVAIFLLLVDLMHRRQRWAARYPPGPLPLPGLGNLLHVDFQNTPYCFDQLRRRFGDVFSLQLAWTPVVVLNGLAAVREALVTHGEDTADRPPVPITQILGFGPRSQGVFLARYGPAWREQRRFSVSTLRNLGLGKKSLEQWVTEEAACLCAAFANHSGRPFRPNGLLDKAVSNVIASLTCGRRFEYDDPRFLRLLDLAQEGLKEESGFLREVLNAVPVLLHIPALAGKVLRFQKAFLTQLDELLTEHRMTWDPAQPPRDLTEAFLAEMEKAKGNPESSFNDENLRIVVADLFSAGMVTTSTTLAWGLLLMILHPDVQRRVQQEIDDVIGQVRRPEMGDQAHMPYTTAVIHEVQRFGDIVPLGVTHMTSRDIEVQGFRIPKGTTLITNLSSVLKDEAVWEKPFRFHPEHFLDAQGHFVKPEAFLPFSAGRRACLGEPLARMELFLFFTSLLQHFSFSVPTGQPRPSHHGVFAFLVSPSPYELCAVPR

[4] = molecular target: Acyl-homoserine lactone acylase PvdQ (Pseudomonas aeruginosa (strain LESB58), UniProt Q9I194); experiment: PvdQ acylase enzyme activity blockers – biochemical, fluorescence, plate reader and imaging, cherry-picks, dose response (AID 493231)
Sequence of Acyl-homoserine lactone acylase PvdQ (Q9I194 24-193 limits assumed): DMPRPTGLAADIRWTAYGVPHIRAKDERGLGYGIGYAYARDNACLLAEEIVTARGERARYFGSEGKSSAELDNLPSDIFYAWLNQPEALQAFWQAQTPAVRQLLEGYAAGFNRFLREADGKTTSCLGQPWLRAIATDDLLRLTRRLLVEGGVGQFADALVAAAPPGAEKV
Sequence of Acyl-homoserine lactone acylase PvdQ (Q9I194 217-762 limits assumed): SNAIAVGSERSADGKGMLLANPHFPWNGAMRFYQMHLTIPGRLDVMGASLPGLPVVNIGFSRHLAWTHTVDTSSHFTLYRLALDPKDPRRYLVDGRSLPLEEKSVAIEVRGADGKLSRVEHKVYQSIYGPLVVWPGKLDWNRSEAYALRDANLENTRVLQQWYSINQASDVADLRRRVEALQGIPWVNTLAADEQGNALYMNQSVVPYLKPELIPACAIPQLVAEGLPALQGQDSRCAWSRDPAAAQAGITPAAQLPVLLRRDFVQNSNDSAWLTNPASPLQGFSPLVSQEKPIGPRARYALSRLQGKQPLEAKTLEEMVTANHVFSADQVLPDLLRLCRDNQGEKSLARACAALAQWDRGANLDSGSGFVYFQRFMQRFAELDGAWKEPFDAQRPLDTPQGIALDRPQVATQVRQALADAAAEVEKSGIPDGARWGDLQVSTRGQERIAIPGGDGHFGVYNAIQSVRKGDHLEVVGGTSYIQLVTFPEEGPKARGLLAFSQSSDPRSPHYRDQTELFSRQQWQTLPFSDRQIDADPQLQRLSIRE

[5] = molecular target: T1, Mannose-6-phosphate isomerase (Homo sapiens, UniProt P34949); experiment: MPI enzyme activity inhibition – biochemical, fluorescence intensity, coupled assay, primary screen (AID 1209)
T1 sequence (P34949 whole entry): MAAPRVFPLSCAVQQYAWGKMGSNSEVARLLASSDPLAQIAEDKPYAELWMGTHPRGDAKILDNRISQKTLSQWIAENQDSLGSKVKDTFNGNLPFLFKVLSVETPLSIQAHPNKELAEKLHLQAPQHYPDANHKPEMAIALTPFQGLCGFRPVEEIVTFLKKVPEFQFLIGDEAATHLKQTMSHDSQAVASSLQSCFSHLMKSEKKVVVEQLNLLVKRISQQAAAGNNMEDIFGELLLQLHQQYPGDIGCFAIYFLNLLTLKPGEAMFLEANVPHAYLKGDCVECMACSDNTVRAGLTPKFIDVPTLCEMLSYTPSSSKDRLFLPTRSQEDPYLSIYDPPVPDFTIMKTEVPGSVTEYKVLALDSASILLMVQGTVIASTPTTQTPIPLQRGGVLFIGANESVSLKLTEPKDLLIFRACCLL

[6] = molecular target: T1, Mannose-6-phosphate isomerase; experiment: MPI inhibition at elevated mannose 6-phosphate – biochemical, fluorescence intensity, high mannose 6-phosphate, primary screen (AID 1220)
[7] = molecular target: Female germline-specific tumor suppressor gld-1 (Caenorhabditis elegans, UniProt Q17339); experiment: blockers of GLD-1/TGE RNA complex formation – biochemical, fluorescence polarization, C. elegans, dose response (AID 2802);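 note: fluorescence polarization of labeled TGE RNA bound by purified gld-1 protein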
Sequence of Female germline-specific tumor suppressor gld-1 (Q17339 whole entry, the tested form may be a part): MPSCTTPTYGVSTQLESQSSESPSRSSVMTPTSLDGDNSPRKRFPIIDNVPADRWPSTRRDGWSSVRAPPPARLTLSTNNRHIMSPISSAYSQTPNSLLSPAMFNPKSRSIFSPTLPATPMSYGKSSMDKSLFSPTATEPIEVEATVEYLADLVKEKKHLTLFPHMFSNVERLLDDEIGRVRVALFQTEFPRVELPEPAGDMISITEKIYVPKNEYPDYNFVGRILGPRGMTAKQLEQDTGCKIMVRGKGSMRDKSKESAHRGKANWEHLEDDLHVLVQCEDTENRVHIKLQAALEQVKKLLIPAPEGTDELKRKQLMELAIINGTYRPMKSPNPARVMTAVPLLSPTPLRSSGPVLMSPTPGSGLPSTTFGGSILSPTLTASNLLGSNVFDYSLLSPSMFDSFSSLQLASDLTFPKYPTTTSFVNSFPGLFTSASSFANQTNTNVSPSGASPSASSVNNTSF

[8] = molecular target: T2, RNA-binding protein pos-1 (Caenorhabditis elegans, UniProt G5EF15); experiment: disruptors of C. elegans POS-1 RNA interaction – biochemical, fluorescence polarization, dose response (AID 1964);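 note: purified POS-1 fused to maltose binding protein made in E. coli; potency of compounds blocking POS-1 binding to fluorescent RNA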
T2 sequence (G5EF15 whole entry): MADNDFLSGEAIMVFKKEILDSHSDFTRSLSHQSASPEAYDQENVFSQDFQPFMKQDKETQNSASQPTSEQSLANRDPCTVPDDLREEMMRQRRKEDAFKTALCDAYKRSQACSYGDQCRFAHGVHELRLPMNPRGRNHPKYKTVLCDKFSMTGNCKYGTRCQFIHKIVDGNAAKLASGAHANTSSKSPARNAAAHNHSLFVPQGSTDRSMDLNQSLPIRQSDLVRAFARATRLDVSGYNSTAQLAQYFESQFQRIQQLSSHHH

Protein Rev = Protein Rev (Human immunodeficiency virus type 1 group M subtype B (isolate HXB2)(HIV-1), UniProt P04618); experiment: blockers of HIV Rev/RRE RNA complex – biochemical, fluorescence polarization, HIV-1, dose response (AID 434976); design: species or system Human immunodeficiency virus 1
Sequence of Protein Rev (P04618 whole entry): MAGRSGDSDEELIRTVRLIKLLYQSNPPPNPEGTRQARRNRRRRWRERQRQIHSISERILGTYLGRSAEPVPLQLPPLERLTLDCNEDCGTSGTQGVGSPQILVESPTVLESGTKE

[9] = molecular target: T3, Zinc finger protein mex-5 (Caenorhabditis elegans, UniProt Q9XUB2); experiment: potency of MEX-5 RNA-binding blockers – biochemical, C. elegans, fluorescence polarization, dose response (AID 1960)
T3 sequence (Q9XUB2 whole entry): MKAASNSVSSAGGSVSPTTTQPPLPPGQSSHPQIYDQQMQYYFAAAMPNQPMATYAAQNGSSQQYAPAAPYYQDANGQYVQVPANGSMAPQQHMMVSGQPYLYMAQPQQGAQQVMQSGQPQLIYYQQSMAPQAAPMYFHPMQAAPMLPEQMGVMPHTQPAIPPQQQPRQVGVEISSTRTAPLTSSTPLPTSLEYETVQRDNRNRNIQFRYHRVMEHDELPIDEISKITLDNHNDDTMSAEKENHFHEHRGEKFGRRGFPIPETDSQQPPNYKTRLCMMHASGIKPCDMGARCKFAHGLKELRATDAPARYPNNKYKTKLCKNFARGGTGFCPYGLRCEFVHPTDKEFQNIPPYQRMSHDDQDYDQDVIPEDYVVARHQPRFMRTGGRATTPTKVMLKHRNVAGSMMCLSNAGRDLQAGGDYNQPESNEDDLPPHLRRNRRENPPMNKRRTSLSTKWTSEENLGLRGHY

[10] = molecular target: G-protein coupled receptor 55 (Homo sapiens, UniProt Q9Y2T6); experiment: selective activators of receptor GPR55 – imaging, U2OS cells, beta-arrestin-GFP redistribution, primary screen (AID 1961); format: functional
Sequence of G-protein coupled receptor 55 (Q9Y2T6 whole entry): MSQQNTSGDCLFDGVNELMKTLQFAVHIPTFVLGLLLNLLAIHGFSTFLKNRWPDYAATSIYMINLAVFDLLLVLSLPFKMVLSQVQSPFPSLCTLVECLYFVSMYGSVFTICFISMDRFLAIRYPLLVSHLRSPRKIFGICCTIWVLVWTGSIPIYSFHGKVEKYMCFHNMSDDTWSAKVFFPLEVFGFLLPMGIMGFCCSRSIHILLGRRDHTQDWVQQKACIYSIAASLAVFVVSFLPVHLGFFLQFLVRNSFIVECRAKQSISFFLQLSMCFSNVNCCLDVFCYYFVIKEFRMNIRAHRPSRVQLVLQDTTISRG

[11] = molecular target: Intestinal-type alkaline phosphatase (Homo sapiens, UniProt P09923); experiment: Dose Response confirmation of uHTS hits from a small molecule inhibitors of human intestinal alkaline phosphatase via a luminescent assay. [Related pubchem assays (depositor defined):AID2544, AID2574]; format: functional
Sequence of Intestinal-type alkaline phosphatase (P09923 whole entry): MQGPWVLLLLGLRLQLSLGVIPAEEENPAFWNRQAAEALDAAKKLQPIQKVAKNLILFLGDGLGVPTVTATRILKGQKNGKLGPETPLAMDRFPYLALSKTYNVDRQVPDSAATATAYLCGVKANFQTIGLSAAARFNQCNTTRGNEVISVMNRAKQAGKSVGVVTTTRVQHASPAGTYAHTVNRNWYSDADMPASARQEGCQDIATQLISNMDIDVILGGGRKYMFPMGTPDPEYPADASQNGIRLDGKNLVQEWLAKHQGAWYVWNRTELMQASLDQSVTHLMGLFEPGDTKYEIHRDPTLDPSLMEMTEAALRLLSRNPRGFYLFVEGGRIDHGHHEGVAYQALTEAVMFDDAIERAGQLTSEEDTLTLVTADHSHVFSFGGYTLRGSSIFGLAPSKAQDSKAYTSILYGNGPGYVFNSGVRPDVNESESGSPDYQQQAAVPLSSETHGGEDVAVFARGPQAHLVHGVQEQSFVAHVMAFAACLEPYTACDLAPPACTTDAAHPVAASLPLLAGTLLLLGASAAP

[12] = A cytotoxicity screen of small molecule inhibitors of the PhoP region in Salmonella typhi identified in the primary screen. [Related pubchem assays: 1850, 1864, 1985 ]; format: functional
cells [13] = format: functional
[14] = molecular target: T4, Neuropeptide Y receptor type 1 (Homo sapiens, UniProt P25929); experiment: IC50 of human NPY-Y1 blockers – cell-based, dose response (AID 1277); format: functional
T4 sequence (P25929 whole entry): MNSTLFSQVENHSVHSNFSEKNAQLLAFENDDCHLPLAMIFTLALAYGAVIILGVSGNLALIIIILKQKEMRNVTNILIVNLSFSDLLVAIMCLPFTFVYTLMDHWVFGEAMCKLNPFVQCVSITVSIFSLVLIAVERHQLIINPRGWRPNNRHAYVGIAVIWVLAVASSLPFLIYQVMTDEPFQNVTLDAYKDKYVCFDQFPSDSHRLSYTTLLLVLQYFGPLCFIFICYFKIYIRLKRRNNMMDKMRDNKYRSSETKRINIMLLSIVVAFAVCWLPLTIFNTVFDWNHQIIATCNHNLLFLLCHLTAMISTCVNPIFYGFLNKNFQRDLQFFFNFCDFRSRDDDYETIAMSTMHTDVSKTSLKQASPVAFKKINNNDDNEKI

[15] = molecular target: T5, Neuropeptide Y receptor type 2 (Homo sapiens, UniProt P49146); experiment: IC50 for human NPY-Y2 blockade – cell-based, counter-screen for NPY-Y1 antagonist project, dose response (AID 1278); format: functional
T5 sequence (P49146 whole entry): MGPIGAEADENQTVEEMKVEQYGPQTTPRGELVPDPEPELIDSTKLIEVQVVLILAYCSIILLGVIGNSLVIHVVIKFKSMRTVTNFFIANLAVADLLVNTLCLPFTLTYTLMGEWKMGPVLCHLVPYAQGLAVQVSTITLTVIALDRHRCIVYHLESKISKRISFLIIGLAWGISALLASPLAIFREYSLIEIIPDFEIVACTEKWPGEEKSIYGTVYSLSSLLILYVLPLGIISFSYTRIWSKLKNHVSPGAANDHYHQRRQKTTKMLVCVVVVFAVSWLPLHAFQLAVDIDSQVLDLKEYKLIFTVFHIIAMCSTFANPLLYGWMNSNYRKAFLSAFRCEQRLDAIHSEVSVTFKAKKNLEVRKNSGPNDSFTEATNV

With `CC(C)(C)OC(=O)NN=C(S)NC1CCCCC1` the IC50 [1] was > 100 µM (active).

For `CCOc1ccc2nc(NC(=O)C3(C)CC3(Br)Br)sc2c1` (stereo not given), the IC50 (cells [2]) was 47.8 µM (active) and the CC50 [3] was 19.4 µM (active).

For `O=C(O)[C@@H]1[C@@H]2C[C@H]3c4[nH]c5ccccc5c4CCN3C[C@@H]2CC[C@@H]1O`, the AC50 (Cytochrome P450 2D6) was 31.6 µM (inconclusive).

With `O=C(c1cccc([N+](=O)[O-])c1)N1CC2C3C=CC(C3)C2C1` (stereo not given) the AC50 [4] was 7.93 µM (active).

For `Cc1cc(C)n(-c2nnc(N3CCN(c4ccc(F)cc4)CC3)nn2)n1`, the IC50 [5] was > 50 µM (not active) and the IC50 [6] was > 50 µM (not active).

In the case of `Cc1c(O)ccc(-c2n[nH]c(C(=O)O)c2-c2nc3ccccc3s2)c1O`, the IC50 [7] is reported as 5.41 µM (active), the EC50 [8] is reported as 15.3 µM (active) and the IC50 (Protein Rev) is reported as > 75.4 µM (not active). The EC50 [9] was 14 µM (inconclusive).

In the case of `CC(=O)c1c(C(C)=O)c(C)n(Cc2ccc3c(c2)OCO3)c1C`, the EC50 [10] is reported as > 32 µM (inactive).

For `CCCCn1c(=O)[nH]c2nc3cc(NC(C)=O)ccc3nc2c1=O`, the IC50 [7] was 0.84 µM (active) and the IC50 (Protein Rev) was 6.5 µM (active).

For `CCCCOc1cccc(C2C(C(=O)c3ccc4c(c3)OCCO4)=C(O)C(=O)N2CCN2CCOCC2)c1` (stereo not given), the IC50 [11] was > 100 µM (inactive).

With `COc1ccccc1C(=O)Nc1nnc(-c2ccc(F)cc2)o1` the EC50 [12] was > 50 µM (active).

In the case of `COC(=O)c1cc(-c2ccc(OC)cc2)on1`, the AC50 [4] is reported as 0.67 µM (active) and the IC50 (cells [13]) is reported as 3.5 µM (active).

In the case of `CCOC(=O)c1c(CSc2ccccc2)n(C)c2ccc(O)c(CN3CCOCC3)c12`, the IC50 [14] is reported as 1.94 µM (active) and the IC50 [15] is reported as > 35 µM (not active).
